Experimental data reported in article PMC11775033, “Toxicokinetics of benzotriazole UV stabilizer UV-P in humans after single oral administration” (Archives of Toxicology, 2024).
Where “and” joins values, the source holds several entries; their conditions need not be identical. Equal values may be shown once. Read-outs that look alike come from different tables or passages of the source.

Experiments:
[1] = cited from earlier work
[2] = human, cited from earlier work
[3] = system: aryl hydrocarbon receptor; parameters: method as in ref Fent et al. [2014]; Kubota et al. [2022]; Liang et al. [2023]; Nagayoshi et al. [2015]; details: ref Fent et al. [2014]; Kubota et al. [2022]; Liang et al. [2023]; Nagayoshi et al. [2015]; cited from earlier work
[4] = Renal excretion kinetics of UV-P in urine after single oral administration (human volunteer study); format: in vivo; details: for half-life: oral, 0.3 mg/kg body weight
Method: Three healthy volunteers (two men and one person) aged between 23 and 57 years were included in the study. […] The NOAEL was used as a starting point and a safety factor of 100 was applied. As a result, 0.3 mg/kg body weight was administered to each participant.
(§1) One blood and one urine sample were collected from each study participant prior to the oral administration of UV-P to determine potential background exposure. 14–27 mg of UV-P (see Table 1) were weighed onto a small piece of bread with butter, which was then consumed by the volunteers. From Subject 1, urine and blood samples were collected up to 72 h post-application. From the other two subjects, samples of urine and blood were collected up to 48 h post-application. The participants collected all urine voids in separate containers. Sampling times and volumes were recorded for each sample. The urine samples were aliquoted and stored at − 20 °C until analysis. 9 ml of blood were drawn from peripheral veins 1 h, 2 h, 3 h, 4 h, 5 h, 6 h, 10 h, 24 h, and 48 h after exposure and collected in EDTA-Monovettes®. From Subject 1, additional blood samples were drawn 8 h, 12 h, 32 h, and 72 h after exposure. Blood samples were stored at – 20 °C until analysis.
The preparation and processing of urine samples was based on a method published by Fischer and Göen ([2021]). However, a few modifications were made. The samples were thawed at room temperature, thoroughly mixed, and subsequently centrifuged at 1600 × g for 2 min. 200 µl of the supernatant were transferred into a 10-ml glass, conical-bottomed centrifuge tube. 800 µl of water, 10 µl of the internal-standard spiking solution (10 mg/l of d4-UV-P in acetonitrile), and 1 ml of sodium acetate buffer (0.4 M, pH 5.0) were added to the samples. After vortex-mixing, 10 µl of β-glucuronidase/arylsulfatase from H. pomatia were added and the samples were briefly vortex-mixed. Enzymatic hydrolysis was performed at 37 °C for 16 h. Afterwards, 2 ml of water, 700 µl of isopropanol, and 400 µl of chloroform were added. The samples were vortex-mixed for 30 s and centrifuged at 2300 × g for 15 min. The lower organic phases were pipetted into 1.8-ml glass vials and evaporated to dryness, followed by the addition of 40 µl of toluene and 40 µl of BSA/TMCS. The samples were vortex-mixed and derivatized at room temperature for 10 min. Afterwards, 20 µl of 5% (v/v) TSIM were added. The samples were vortex-mixed and transferred into the micro-inserts of 1.8-ml glass vials. Finally, the samples were heated to 40 °C for 1 h and analyzed by GC–MS/MS.
A nine-point calibration curve in the range of 10–5000 µg/l was applied for the analysis of the in vivo study samples. For calibration, two analyte spiking solutions containing 50 mg/l and 2 mg/l of UV-P were prepared in acetonitrile.
The urinary creatinine content of the study samples was determined photometrically by the Jaffé’s method (Larsen [1972]). To quantify the unconjugated form of UV-P, the urine samples of one study participant were additionally processed without the addition of β-glucuronidase/arylsulfatase from H. pomatia and incubation at 37 °C.
Renal excretion rates (RE, in µg/h) of UV-P at a certain point in time were calculated by the following equation: RE=ci×vi/ti-ti-1 where ci (in µg/l) is the concentration of UV-P in the urine sample i, vi (in l) is the volume of the respective urine sample, ti (in h) is the elapsed time value of sample collection, and ti–1 (in h) is the elapsed time value of the previous sample collection.

[5] = parameters: method as in ref Arisu et al. [1992]; Björkner and Niklasson [1997]; Niklasson and Björkner [1989]; details: ref Arisu et al. [1992]; Björkner and Niklasson [1997]; Niklasson and Björkner [1989]; cited from earlier work
[6] = Kinetics of UV-P in blood after single oral administration (human volunteer study); format: in vivo; details: for half-life: po, 0.3 mg/kg; for Tmax: oral, post-exposure, read-out: time of maximum blood levels
Method: Three healthy volunteers (two men and one person) aged between 23 and 57 years were included in the study. The administered dose of UV-P was calculated with respect to an adequate distance from the no-observed-adverse-effect level (NOAEL) determined in toxicological studies in rats (30 mg/kg body weight per day) (OECD [2017]). The NOAEL was used as a starting point and a safety factor of 100 was applied. As a result, 0.3 mg/kg body weight was administered to each participant.
as §1
The preparation and processing of the blood samples was based on a previously published method (Fischer and Göen [2023]). The samples were stored at – 20 °C until analysis. The samples were thawed at room temperature and mixed on a roller mixer. 1 ml of each sample was pipetted into a separate 6-ml glass vial. 20 µl of the d4-UV-P spiking solution [1000 µg/l of d4-UV-P in a mixture of 0.9% NaCl solution and acetonitrile (v/v, 9:1)] was added. 1 ml of acetonitrile was added to the samples, which were then vortex-mixed for 1 min and centrifuged at 4000 × g for 15 min at room temperature. The supernatants were transferred to clean 6-ml glass vials. 0.5 ml of sodium acetate buffer (0.4 M, pH 5.0) and 10 µl of β-glucuronidase/arylsulfatase from H. pomatia were added. After brief vortex-mixing, the samples were incubated at 37 °C for 16 h. After incubation, the samples were transferred to conical-bottomed centrifuge tubes and diluted with 2.5 ml of water. 1 ml of acetonitrile and 700 µl of chloroform were added and the samples were vortex-mixed for 30 s and centrifuged at 2500 × g for 15 min. The lower organic phases were pipetted into separate 1.8-ml glass vials and evaporated to dryness, followed by the addition of 40 µl of toluene and 40 µl of BSA/TMCS. The samples were vortex-mixed and derivatized at room temperature for 10 min. Afterwards, 20 µl of 5% (v/v) TSIM were added. The samples were vortex-mixed and transferred into the micro-inserts of 1.8-ml glass vials. Finally, the samples were heated to 40 °C for 1 h and analyzed by GC–MS/MS.
A seven-point calibration curve in the range of 0.5–150 µg/l was applied. Calibration standards were prepared by spiking human blood with various volumes of the UV-P spiking solutions containing 1000 µg/l or 100 µg/l of UV-P in a mixture of 0.9% NaCl solution and acetonitrile (v/v, 9:1). One sample each of Qlow (low-concentration quality-control material; 1 µg/l) and Qhigh (high-concentration quality-control material; 30 µg/l) was processed analogously to the samples in each analytical run. A reagent-blank sample, containing water instead of blood, was included in each analytical run as well. Any blank values were subtracted from the analytical results. The reliability criteria of the method are given in the Supplementary Information. […]

human serum albumin = system: human serum albumin; parameters: method as in Zhuang et al. [2016]; details: ref Zhuang et al. [2016]; cited from earlier work
rats = system: rats; parameters: method as in OECD [2017]; details: ref OECD [2017]; cited from earlier work
[7] = parameters: method as in ref Fent et al. [2014]; Zhuang et al. [2017]; Sakuragi et al. [2021]; details: in vivo studies; ref Fent et al. [2014]; Zhuang et al. [2017]; Sakuragi et al. [2021]; cited from earlier work

## CC(C)(C)c1cc(-n2nc3ccc(Cl)cc3n2)c(O)c(C(C)(C)C)c1 [UV-327]
[1]; in vivo
  sum of renally eliminated parent compound and metabolites: 0.03%
[2]; in vivo, po
  time of maximum concentrations in blood (average): 6 h

## Cc1ccc(O)c(-n2nc3ccccc3n2)c1 [UV-P, 2-(2H-Benzotriazol-2-yl)-p-cresol]
[3]
  activation of the aryl hydrocarbon receptor: activates
[4]; Subject 1 only, 72 h
  orally administered dose recovered in urine within 72 h: 44.9%
[4]; after exposure, Subject 1 (Figure SI-3)
  time at which cumulative amount excreted via urine reached a plateau: about 24 h
[4]; both sexes, human, urine, human urine, first phase until 7 h post-administration, n = 3, mean ± SD (range), read-out: t1/2—Phase 1 (renal excretion) (converted)
  half-life: 0.7 ± 0.2 h
[4]; both sexes, human, urine, human urine, second elimination phase, n = 3, mean ± SD (range), read-out: t1/2—Phase 2 (renal excretion) (converted)
  half-life: 6.6 ± 1.1 h
[4]; both sexes, human, urine, po, 0.3 mg/kg, human urine, single oral 0.3 mg/kg, n = 3, mean ± SD (range), read-out: tmax (timepoint of maximum renal excretion rate)
  Tmax: 3.5 ± 1.1 h
[4]; human urine, 6 h, n = 3, mean ± SD (range)
  FUE after 6 h (urinary excretion factor, % of dose): 26.7–33.2%
[4]; human urine, 12 h, n = 3, mean ± SD (range)
  FUE after 12 h (urinary excretion factor, % of dose): 30.4–40.2%
[4]; human urine, 24 h, n = 3, mean ± SD (range)
  FUE after 24 h (urinary excretion factor, % of dose): 31.7–43.3%
[4]; human urine, 48 h, n = 3, mean ± SD (range)
  FUE after 48 h (urinary excretion factor, % of dose): 37.2 ± 5.4% and 32.0–44.7% and 32–45% and 37%
[4]; human urine, single oral 0.3 mg/kg body weight, with enzymatic hydrolysis, n = 3, mean ± SD (range), 0.3 mg/kg
  REmax (maximum renal excretion rate): 2896 ± 884 µg/h and 2896 ± 885 µg/h
[4]; human urine, single oral 0.3 mg/kg, n = 3, mean ± SD (range), 0.3 mg/kg
  tmax (timepoint of maximum renal excretion rate): 2.6 to 5.0 h and 3 to 5 h
[5]
  allergic contact dermatitis: cause allergic contact dermatitis
[6]; both sexes, human, whole blood, human blood, single oral 0.3 mg/kg, first phase up to 6 h, n = 3, mean ± SD (range), read-out: t1/2—Phase 1 (blood) (converted)
  half-life: 1.3 ± 0.1 h
[6]; both sexes, human, whole blood, human blood, single oral 0.3 mg/kg, second phase, n = 3, mean ± SD (range), read-out: t1/2—Phase 2 (blood) (converted)
  half-life: 7.7 ± 1.1 h
[6]; both sexes, human, whole blood, 6 h post-exposure, single oral 0.3 mg/kg, n = 3, read-out: mean blood level of UV-P
  concentration at 6 h: 44 ± 30 ng/mL
[6]; both sexes, human, whole blood, 24 h post-exposure, single oral 0.3 mg/kg, n = 3, read-out: mean blood level of UV-P
  concentration at 24 h: 2.5 ± 1.3 ng/mL
[6]; both sexes, human, whole blood, 48 h post-exposure, single oral 0.3 mg/kg, n = 3, read-out: mean blood level of UV-P
  concentration at 48 h: 0.7 ± 0.7 ng/mL
[6]; both sexes, whole blood, human blood, single oral 0.3 mg/kg body weight, with enzymatic hydrolysis, n = 3, mean ± SD (range), read-out: cmax (maximum level of UV-P in blood)
  Cmax: 184 ± 36 ng/mL
[6]; human, whole blood, 0.3 mg/kg body weight, 72 h after oral administration, Subject 1 only, read-out: blood level of UV-P
  concentration at 72 h: 0.45 ng/mL
[6]; human, whole blood, 0.3 mg/kg body weight, third subject (Subject 1)
  Tmax: 4 h
[6]; human, whole blood, 0.3 mg/kg body weight, two of the subjects (Subjects 2 and 3)
  Tmax: 1 to 2 h
[6]; subject 1
  slope of linear fit, blood levels without vs with hydrolysis (unconjugated share): 0.133
[6]; subject 2
  slope of linear fit, blood levels without vs with hydrolysis (unconjugated share): 0.196
[6]; subject 3
  slope of linear fit, blood levels without vs with hydrolysis (unconjugated share): 0.135
Human serum albumin
  binding to human serum albumin: bind
rats
  no-observed-adverse-effect level (NOAEL): 30 mg/kg body weight per day
[7]
  endocrine effects in vivo: no indication of endocrine effects

## CCC(C)(C)c1cc(-n2nc3ccccc3n2)c(O)c(C(C)(C)CC)c1 [UV-328, 2-(2H-benzotriazol-2-yl)-4,6-di-tert-pentylphenol]
[1]; accumulated until 72 h post-exposure, ref Denghel et al. [2021], Fischer et al. [2023]
  share of ingested amount excreted via urine as parent compound: 0.001%
[1]; human urine, ref Denghel et al. [2021], Fischer et al. [2023]
  share of conjugation of renally eliminated compound: 16%
[1]; share of ingested amount, ref Denghel et al. [2021], Fischer et al. [2023]
  sum of renally eliminated parent compound and metabolites: 0.12%
[2]; after oral administration, ref Fischer et al. [2023], Denghel et al. [2021]
  time of maximum concentrations in blood (average): 8 h
